Test results taken from patent publication US20120283193A1, “MANIPULATION OF BRAIN IN A CIRCUIT-SPECIFIC MANNER” (priority 2009, published 2012).
Like-named read-outs stand apart in the source and are kept apart here.

Assays:
VSC neurons = assay type: in vivo, Xenopus
Experimental: (§1) Neuropharmacology. […] For selective ablation of VSCDA neurons, MPTP was bath-applied in the dark to larvae for 8 h at stage 41. 100 mM deprenyl (Sigma) was bath-applied to inhibit monoamine oxidase.
Immunocytochemistry. The number of neurons in the VSC was quantified by counting the cells within the core and the surrounding annular region in sections of the diencephalon.
A pharmacological approach to test the involvement of electrical activity and calcium signaling was then performed. […] agarose beads loaded with calcein acetoxymethylester (calcein-AM) tracer were implanted in the roof of the hypothalamus above the VSC to evaluate the time course of drug delivery.

OB interneurons = assay: Neurotransmitter expression in olfactory bulb interneurons after kin/non-kin odorant exposure; assay type: in vivo, Xenopus laevis
Xenopus larvae = assay: Skin pigmentation adaptation to illumination/background in larvae; assay type: in vivo; details: for light-dependent changes in pigmentation (reduction in pigmented area) driven by newly induced TH/NPY annular neurons: MPTP-light and control larvae, sulpiride 10 nM during 30-min exposure to white background (FIG. 6c)
Experimental: Illumination experiments. The optimal condition for altering skin pigmentation and numbers of TH neurons were determined by raising larvae under two illumination conditions. In the first, larvae were placed on black, grey or white backgrounds (corresponding to N2.25, N7.25 or N9.5 on the Munsell neutral value scale of a monochromatic colour wheel) with constant illumination (331 lux (lx)). In the second, larvae on a white, grey or black background were exposed to constant illumination (6,560 lx, measured with a light meter (Sper Scientific)-equivalent to shady illumination on a sunny day), or to constant dark or to 12 h light/12 h dark. […] For some tests of the functional significance of newly TH neurons, animals were raised under different light/background conditions and a conditioning step of 30 min light/white background exposure was imposed to achieve similar levels of skin pigmentation before comparing light or dark adaptation between these groups.
as §1

SMILES: CC(=O)OCOC(=O)CN(CC(=O)OCOC(C)=O)c1ccccc1OCCOc1ccccc1N(CC(=O)OCOC(C)=O)CC(=O)OCOC(C)=O [BAPTA-AM, 1,2-bis-(o-aminophenoxy)-ethane-N,N,N9,N9-tetraacetic acid, tetraacetoxymethyl ester]
- number of TH neurons or NPY/TH annular neurons in the VSC (VSC neurons; drug-loaded agarose beads implanted above the VSC, 2 h white light following 24 h in the dark (FIG. 4b, c)): no increase
- NPY/TH colocalization in VSC sections of bead-implanted larvae (VSC neurons; larvae exposed to 2 h light, versus white-adapted control and calcein bead (FIG. 4B)): absent
- changes in NT phenotype (dopamine/GABA coexpression) after kin or nonkin exposure (OB interneurons; local delivery, stage 45 larvae, 48 hr odorant exposure): prevents

SMILES: CN1CC=C(c2ccccc2)CC1 [MPTP, 1-methyl-4-phenyl-1,2,3,6-tetrahydropyridine]
- changes in pigmentation after 30 min exposure to light / white background (Xenopus larvae; dark-raised, MPTP-treated larvae (MPTP-dark group, FIG. 6c)): abolished

SMILES: Oc1cc2c(cc1O)C(c1ccccc1)CNCC2 (centres unmarked) [SKF-38393]
- effect on pigmentation behaviour (Xenopus larvae; D1 receptor agonist and antagonist, opposite effect to the D2 ligands): darkening

SMILES: NC1=N[C@H](O)[C@H]2[C@H]3O[C@]4(O)O[C@@H]([C@@H](O)[C@@]2(N1)[C@@H]4O)[C@]3(O)CO [TTX, tetrodotoxin]
- number of TH neurons or NPY/TH annular neurons in the VSC (VSC neurons; in vivo): no increase
- changes in NT phenotype (dopamine/GABA coexpression) after kin or nonkin exposure (OB interneurons; in vivo): prevents

SMILES: CCN1CCCC1CNC(=O)c1cc(S(N)(=O)=O)ccc1OC (centres unmarked) [sulpiride]
- number of TH VSC neurons (VSC neurons; sulpiride-treated larvae): not affected
- light-dependent changes in pigmentation (reduction in pigmented area) driven by newly induced TH/NPY annular neurons (Xenopus larvae): blocked
- light-dependent changes in pigmentation (reduction in pigmented area) driven by newly induced TH/NPY annular neurons (Xenopus larvae; listed as Sulpiride): blocks
- changes in skin pigmentation in response to altered illumination (Xenopus larvae; stage-42 larvae raised in the dark, 10 nM sulpiride for 30 min (FIG. 1c)): blocked
